Results: US12419900B2, “Induction of synthetic lethality with epigenetic therapy” (The Johns Hopkins University, priority 2017, dated 2025)

How the values were obtained:
[1] = test system: DU145 prostate cancer cells; assay: Alamar blue cell viability and growth, alisertib x decitabine dose matrix; type: cell-based
Description: DU145 prostate cancer cells and A549 lung cancer cells were treated with varying concentrations (0 nM, 10 nM, 50 nM, and 100 nM) of alisertib in addition to varying concentrations of decitabine (0 nM, 50 nM, 100 nM, and 250 nM). Representative data are shown in FIGS. 2A and 2B, as well as the Tables below. […] In each panel, a dose response of each drug alone and in combination was used in Alamar blue cell viability assays. […] Formal synergy analyses were performed using the Bliss independence score (where values greater than zero indicate greater than additive effect). […] The graph of FIG. 2A is a growth curve of the DU145 prostate cancer cells for the agents alone (decitabine and alisertib separately), a vehicle control, and the agents in combination (decitabine and alisertib together). […] Likewise, the graph of FIG. 2B is a growth curve of the A549 lung cancer cells for the agents alone (decitabine and alisertib separately), a vehicle control, and the agents in combination (decitabine and alisertib together). […] The synergy analysis of the combination of decitabine and alisertib was evaluated in a series of 18 cancer cell lines (9 prostate, 1 ovarian, 1 lung, 2 colon, 2 central nervous system, and 3 breast cancer cell lines) and 2 non-cancer cell models.

A549 lung cancer cells = assay: as above; type: cell-based; settings: Homo sapiens, DAC 0 nM, read-out: Percent Growth Inhibition
Description: DU145 prostate cancer cells and A549 lung cancer cells were treated with varying concentrations (0 nM, 10 nM, 50 nM, and 100 nM) of alisertib in addition to varying concentrations of decitabine (0 nM, 50 nM, 100 nM, and 250 nM). Representative data are shown in FIGS. 2A and 2B, as well as the Tables below. […] Formal synergy analyses were performed using the Bliss independence score (where values greater than zero indicate greater than additive effect). […] The graph of FIG. 2A is a growth curve of the DU145 prostate cancer cells for the agents alone (decitabine and alisertib separately), a vehicle control, and the agents in combination (decitabine and alisertib together). […] Likewise, the graph of FIG. 2B is a growth curve of the A549 lung cancer cells for the agents alone (decitabine and alisertib separately), a vehicle control, and the agents in combination (decitabine and alisertib together). […] The synergy analysis of the combination of decitabine and alisertib was evaluated in a series of 18 cancer cell lines (9 prostate, 1 ovarian, 1 lung, 2 colon, 2 central nervous system, and 3 breast cancer cell lines) and 2 non-cancer cell models.

primary hepatocytes = assay: Cell viability and growth, alisertib x decitabine dose matrix; type: cell-based; settings: Hepatocyte, DAC 0 nM, read-out: Percent Growth Inhibition
Description: The synergy analysis of the combination of decitabine and alisertib was evaluated in a series of 18 cancer cell lines (9 prostate, 1 ovarian, 1 lung, 2 colon, 2 central nervous system, and 3 breast cancer cell lines) and 2 non-cancer cell models. A final cumulative Bliss synergy score was calculated based on the sum of the synergy values from each of the 16 combinations of 0 nM, 10 nM, 50 nM, and 100 nM of alsertib together with 0 nM, 50 nM, 100 nM, and 250 nM of decitabine.

DU145 xenograft tumor = assay: In vivo xenograft study of DU145, decitabine and alisertib; set-up: species or system nude mice
Description: Using in vivo xenograft studies of the DU145 prostate cancer cell line, the effect was explored of the treatment of two dose levels of alisertib alone or in combination with decitabine using two different treatment time schedules over a period of seven weeks. First, nude mice were inoculated with DU145 cells that were allowed to incubate for 10-12 days to establish xenograft tumor. The inoculated mice were then treated concomitantly with both a high dose and a low dose of alisertib and decitabine in the first two weeks or primed with decitabine alone for two weeks followed by alisertib alone in the first cycle. The dose of decitabine was held constant at 0.75 mg/kg and given with either low-dose (15 mg/kg) or high-dose (25 mg/kg) alisertib, as indicated in FIG. 4. The cumulative number of doses of decitabine and alisertib was the same in all combination treatment arms in both schedules.

[2] = In vivo toxicity profile of treated mice; settings: FIGS. 7D and 7E
Description: The toxicity profile of the treated mice was observed, and the animals were weighed over the course of the experiment.

[3] = test system: residual xenograft tumors; assay: KI-67 and Caspase 3A staining of residual xenograft tumors; type: in vivo, nude mice; settings: decitabine pre-treatment experiment
Description: The proliferative index and apoptotic fraction in residual xenograft tumors from the decitabine pre-treatment experiment was then examined. Sample cells from each of the vehicle control, decitabine pre-treatment alone, alisertib alone, and decitabine pretreatment in combination with alisertib were stained with either KI-67 or Caspase 3A.

DNMT3B = assay: Western Blot in DU145 cells; type: cell-based; settings: 100 nM decitabine, 100 nM alisertib
Description: DNA methyltransferase enzymes comprise a family of enzymes including DNMT1, DNMT3A, and DNMT3B. […] In this study, Western Blot analyses for DNMT3B were performed on DU145 cell tissue sample treated with vehicle control; 100 nM alisertib alone; 100 nM decitabine alone; and 100 nM of decitabine in combination with 100 nM of alisertib.

DNMT1 = assay: Protein levels in DU145 cells (data not shown); type: cell-based
DNMT3A = assay: Protein levels in DU145 cells (data not shown); type: cell-based
Satellite 2 sequences = assay: Bisulfite genomic sequencing of repetitive elements; type: cell-based; settings: DU145; vehicle control 45.09%

## COc1cc(Nc2ncc3c(n2)-c2ccc(Cl)cc2C(c2c(F)cccc2OC)=NC3)ccc1C(=O)O [alisertib]
[1]; Aurora kinase inhibitor + decitabine
  growth inhibition of DU-145 cells in combination with decitabine: synergistic growth inhibition
[1]; Homo sapiens, DU-145, DU145, DAC 0 nM, Alisertib 10 nM, read-out: Percent Growth Inhibition
  inhibition at 0.01 µM: 0%
[1]; Homo sapiens, DU-145, DU145, DAC 0 nM, Alisertib 50 nM, read-out: Percent Growth Inhibition
  inhibition at 0.05 µM: 0%
[1]; Homo sapiens, DU-145, DU145, DAC 0 nM, Alisertib 100 nM, read-out: Percent Growth Inhibition
  inhibition at 0.1 µM: 2%
A549 lung cancer cells; Alisertib 10 nM
  inhibition at 0.01 µM: 0%
A549 lung cancer cells; Alisertib 50 nM
  inhibition at 0.05 µM: 0%
A549 lung cancer cells; Alisertib 100 nM
  inhibition at 0.1 µM: 1%
Primary hepatocytes; Alisertib 10 nM
  inhibition at 0.01 µM: 10%
Primary hepatocytes; Alisertib 50 nM
  inhibition at 0.05 µM: 21%
Primary hepatocytes; Alisertib 100 nM
  inhibition at 0.1 µM: 15%
DU145 xenograft tumor; Alisertib high dose 25 mg/kg alone, week 0
  Fold Change in Tumor Size, Mean: 1
DU145 xenograft tumor; Alisertib high dose 25 mg/kg alone, week 1
  Fold Change in Tumor Size, Mean: 1.69
DU145 xenograft tumor; Alisertib high dose 25 mg/kg alone, week 2
  Fold Change in Tumor Size, Mean: 2.35
DU145 xenograft tumor; Alisertib high dose 25 mg/kg alone, week 3
  Fold Change in Tumor Size, Mean: 3.16
DU145 xenograft tumor; Alisertib high dose 25 mg/kg alone, week 4
  Fold Change in Tumor Size, Mean: 5.08
DU145 xenograft tumor; Alisertib high dose 25 mg/kg alone, week 5
  Fold Change in Tumor Size, Mean: 6.47
DU145 xenograft tumor; Alisertib high dose 25 mg/kg alone, week 6
  Fold Change in Tumor Size, Mean: 8.46
DU145 xenograft tumor; Alisertib high dose 25 mg/kg alone, week 7
  Fold Change in Tumor Size, Mean: 9.98
DU145 xenograft tumor; Alisertib low dose 15 mg/kg alone, week 0
  Fold Change in Tumor Size, Mean: 1
DU145 xenograft tumor; Alisertib low dose 15 mg/kg alone, week 1
  Fold Change in Tumor Size, Mean: 1.31
DU145 xenograft tumor; Alisertib low dose 15 mg/kg alone, week 2
  Fold Change in Tumor Size, Mean: 2.25
DU145 xenograft tumor; Alisertib low dose 15 mg/kg alone, week 3
  Fold Change in Tumor Size, Mean: 2.96
DU145 xenograft tumor; Alisertib low dose 15 mg/kg alone, week 4
  Fold Change in Tumor Size, Mean: 4.33
DU145 xenograft tumor; Alisertib low dose 15 mg/kg alone, week 5
  Fold Change in Tumor Size, Mean: 5.12
DU145 xenograft tumor; Alisertib low dose 15 mg/kg alone, week 6
  Fold Change in Tumor Size, Mean: 6.02
DU145 xenograft tumor; Alisertib low dose 15 mg/kg alone, week 7
  Fold Change in Tumor Size, Mean: 7.54
DU145 xenograft tumor; decitabine alone, alisertib high and low dose alone, combinations concurrent or primed, low and high dose alisertib
  tumor growth (FIG. 5A): continued to grow at a significant rate
DU145 xenograft tumor; single agent therapy at the doses tested (decitabine 0.75 mg/kg; alisertib 15 or 25 mg/kg)
  xenograft tissue growth or survival compared to the vehicle control: did not significantly alter
[2]
  AST and ALT (liver function): elevated
[3]
  Caspase 3A staining (apoptosis): almost no alteration
  KI-67 staining (cell proliferation): almost no alteration
DNMT3B
  DNMT3B levels: significantly reduce
DNMT1
  DNMT1 levels: did not significantly affect
DNMT3A
  DNMT3A levels: did not significantly affect
Satellite 2 sequences
  percent of CpG Satellite 2 methylation: 40.6%
